Measured values taken from PMC10406726, “Development, scrutiny, and modulation of transient reporter gene assays of the xenobiotic metabolism pathway in zebrafish hepatocytes” (Cell Biology and Toxicology, 2021).
Like-named read-outs stand apart in the source and are kept apart here.

Tests used:
Format in all cases: cell-based, zebrafish (Danio rerio)
[1] = test system: AhR (AhR/ARNT/XRE pathway); experiment: AhR-responsive transient dual luciferase reporter gene (DLR) assay in ZFL cells; conditions: zebrafish, BNF exposure
Description: (§1) ZFL cells were seeded either into white, clear-bottom 96-well microtiter plates (Corning, New York, USA; for DLR assays) or transparent 96-well microtiter plates (Corning, New York, USA; for viability assays) at a density of 1.5 × 10^5 cells/mL, in 100 μL/well. After 24 h of incubation, cells reached a confluence of about 80%.
(§2) The transient transfection was conducted in a 2-μg transfection reagent to 1 μg plasmid DNA ratio, applying the XHP transfection reagent (Roche, Mannheim, Germany). Specific transfection optimization experiments were reported priory (Lungu-Mitea et al. [2018]). The transient transfection reaction was incubated as a co-transfection in a 10:1 reporter to control ratio (0.9 μg reporter plasmid, 0.1 μg control plasmid) for 30 min, before adding the reaction mixture to the cells. Firefly luciferase-bearing vectors were used as the primary reporter plasmids, and Renilla luciferase-bearing vectors were used for normalization (control plasmid). Ten microliter per well of the transfection reaction mix was added to the cells and incubated for 24 h. Following (Lungu-Mitea and Lundqvist [2020]), cells used in both DLR and viability assays were transiently transfected.
(§3) Prepared aliquots of stock solutions were thawed and further titrated using the nutrition medium supplemented with 5‰ (v/v) DMSO as a solvent. […] Different exposure regimes were applied. […] All potential co-transfection combinations were screened in this initial approach. […] Further, cells transfected with candidate plasmid combinations were subjected to a TCDD exposure regime from 100 pM to 100 nM (0.1, 0.3, 1, 3, 10, 30, 100 nM). Cells were exposed in 100 μL/well of the specifically spiked nutrition medium. Solvent controls (negative controls) were conducted in six replicates for every specific experiment.
(§4) After 24 h of exposure to AhR-agonists, cells on white 96-well microtiter plates were lysed in 20-μL passive lysis buffer (PLB; Promega, Madison, USA), and quantitative AhR-dependent luminescence was measured via Dual-Luciferase® Reporter Assay (DLR; Promega, Madison, USA), according to the manufacturer’s protocol using an auto-injecting Infinite M1000 microplate reader (Tecan, Männedorf, Switzerland), following a flash luminescence protocol. The luciferase activity was normalized to transfection efficiency (Firefly raw light unit readout divided by Renilla raw light unit readout) and further expressed as fold change compared to the non-treated controls.
(§5) In terms of the NOEC/LOEC analyses, for both approaches (DLR and viability), mean background values (blanks) were subtracted from the raw values, and the data was computed as fold induction in relation to the negative controls. Means of every experiment were pooled (experimental unit n = 3–5; observational unit N = 9–15). Normality was tested by Shapiro–Wilk and Kolmogorov–Smirnov tests (both significance level alpha = 0.05) and analyzed graphically via normal-qq-plot. Non-normal data were log-transformed and re-analyzed. Given normality, statistically differing significance in the output signal from the negative controls was assessed via one-way ANOVA, followed by Dunnett’s post hoc test (for multiple comparisons vs. control). Residuals were graphically analyzed by quantile–quantile plot (actual vs. predicted residuals), homoscedasticity plot (absolute residuals vs. fitted), and residual plot (residuals vs. fitted) to ensure ANOVA criteria were met. Further, Brown–Forsythe and Bartlett’s tests were conducted to check for the residuals’ homoscedasticity and normality. Beyond statistical significance, for all viability tests, a threshold of 80% as compared to the negative control (corresponding 0.8) was determined as biologically significant and marked with a dotted red line within all respective graphs. […]

[2] = test system: AhR transcription factor activation (AhR/ARNT/XRE pathway); experiment: as above
Description: as §1, §2, §3, §4, §5

ZFL cells = experiment: MTS/BCA-multiplex viability assay on transiently transfected ZFL cells
Description: In parallel to the DLR assays, MTS/BCA-multiplex assays were conducted on identically treated cells. The MTS/BCA-multiplex assay, which is described in detail in (Lungu-Mitea et al. [2021]), scores NADPH-turnover and total protein amount as apical endpoints of cell viability or cytotoxicity. After 24 h exposure, the spiked nutrition medium was discharged, cells were washed once in 100 µL/well PBS, and 100 µL/well Earle’s Balanced Salt Solution (EBSS; Gibco, Paisley, UK) was added. MTS-based CellTiter 96® AQueous One Solution Cell Proliferation Assay (Promega, Madison, USA) was conducted following the manufacturer’s protocol. Seventeen percent (v/v) MTS reagent were added to the wells. After 2 h of incubation at 28 °C and atmospherical CO2, formazan product turnover absorbance was measured at 490 nm using an Infinite M1000 microplate reader. Afterwards, EBSS and MTS reagents were removed. Cells were washed once in 100 µL/well PBS and lysed in 20-µL PLB at RT for 30 min. Bicinchoninic Acid Protein Assay (BCA, Sigma-Aldrich, St. Louis, USA) was conducted following the manufacturer’s protocol. One hundred eighty microliters of BCA-reagent was added to every well, plates were agitated shortly, and incubated for 20 min at 60 °C. After cooling down for 15 min at RT, absorbance was measured at 562 nm using an Infinite M1000 microplate reader.
In terms of the NOEC/LOEC analyses, for both approaches (DLR and viability), mean background values (blanks) were subtracted from the raw values, and the data was computed as fold induction in relation to the negative controls. Means of every experiment were pooled (experimental unit n = 3–5; observational unit N = 9–15). Normality was tested by Shapiro–Wilk and Kolmogorov–Smirnov tests (both significance level alpha = 0.05) and analyzed graphically via normal-qq-plot. Non-normal data were log-transformed and re-analyzed. Given normality, statistically differing significance in the output signal from the negative controls was assessed via one-way ANOVA, followed by Dunnett’s post hoc test (for multiple comparisons vs. control). Residuals were graphically analyzed by quantile–quantile plot (actual vs. predicted residuals), homoscedasticity plot (absolute residuals vs. fitted), and residual plot (residuals vs. fitted) to ensure ANOVA criteria were met. Further, Brown–Forsythe and Bartlett’s tests were conducted to check for the residuals’ homoscedasticity and normality. Beyond statistical significance, for all viability tests, a threshold of 80% as compared to the negative control (corresponding 0.8) was determined as biologically significant and marked with a dotted red line within all respective graphs.

O=c1cc(-c2ccccc2)oc2ccc3ccccc3c12 [BNF, β-naphthoflavone]
IC50 ([1]; all tested setups, see Table 2, read-out: IC50, range over co-transfection setups): […] | IC50 ([1]; approximate, regarding the regression model used, read-out: IC50, range over co-transfection setups): […] | EC50 ([1]; setup (a) pGL4.43 + pGL4.70, bell-shaped regression, normalized induction, read-out: EC50 (normalized)): […] | IC50 ([1]; setup (a) pGL4.43 + pGL4.70, bell-shaped regression, normalized induction, read-out: IC50 (normalized)): […] | EC50 ([1]; setup (a) pGL4.43 + pGL4.70, bell-shaped regression, relative induction, read-out: EC50 (relative; non-normalized)): […] | IC50 ([1]; setup (a) pGL4.43 + pGL4.70, bell-shaped regression, relative induction, read-out: IC50 (relative; non-normalized)): […] | EC50 ([1]; setup (b) pGL4.43 + pRL-null, bell-shaped regression, normalized induction, read-out: EC50 (normalized)): […] | IC50 ([1]; setup (b) pGL4.43 + pRL-null, bell-shaped regression, normalized induction, read-out: IC50 (normalized)): […] | EC50 ([1]; setup (b) pGL4.43 + pRL-null, bell-shaped regression, relative induction, read-out: EC50 (relative; non-normalized)): […] | IC50 ([1]; setup (b) pGL4.43 + pRL-null, bell-shaped regression, relative induction, read-out: IC50 (relative; non-normalized)): […] | EC50 ([1]; setup (c) pGudLuc7.5 + pRL-null[zfEF1aPro], bell-shaped regression, normalized induction, read-out: EC50 (normalized)): […] | IC50 ([1]; setup (c) pGudLuc7.5 + pRL-null[zfEF1aPro], bell-shaped regression, normalized induction, read-out: IC50 (normalized)): […] | EC50 ([1]; setup (c) pGudLuc7.5 + pRL-null[zfEF1aPro], bell-shaped regression, relative induction, read-out: EC50 (relative; non-normalized)): […] | IC50 ([1]; setup (c) pGudLuc7.5 + pRL-null[zfEF1aPro], bell-shaped regression, relative induction, read-out: IC50 (relative; non-normalized)): […] | effect on AhR-related signal ([2]; 300 nM BNF, pGudluc7.5 with non-viral promoter normalization vectors (Fig. 1C + D)): statistically significant inhibition | effect on AhR-related signal at highest exposure concentration ([2]; 1 µM BNF, pGL4.43 + pGL4.70 and pGL4.43 + pRL-null): […] | maximum induction of AhR-related luminescence ([2]; BNF at 10 nM, pGL4.43 + pRL-null[zfEF1aPro] (Fig. S5)): 3.9 fold | concentration beyond which AhR-related signal inhibition is encountered ([2]; BNF exposure): […] | LOEC ([2]; BNF exposure, pGL4.43 + pRL-null[zfEF1aPro] (Fig. S5)): 3 nM | EC50 ([2]; BNF exposure, setup (a) pGL4.43 + pGL4.70, bell-shaped regression, normalized induction): 2.95 nM | induction of AhR-related luciferase signal ([2]; BNF screening, co-transfection with pGudluc7.5 (Figs. 1C + D, 2, S4)): no overall statistically significant induction | induction of AhR-related luciferase response ([2]; BNF screening, pGL4.43 + pGL4.74, pGL4.43 + pRL-SV40, pGL4.43 + pGL4.73 (viral promoters)): 1.5- to threefold | statistically significant cytotoxicity (ZFL cells; BNF 3-300 nM, pGL4.43 with any viral promoter-bearing vector (Fig. S3)): No statistically significant cytotoxicity | cytotoxicity by biological threshold (0.8) (ZFL cells; BNF highest exposure concentration, pGL4.43 + pRL-SV40 and pRL-CMV, at least one endpoint (Fig. S3D + F)): depicted cytotoxicity by biological threshold definition | cytotoxicity (statistical or biological significance) (ZFL cells; BNF highest exposure concentration, pGudluc7.5 + CMV and SV40-bearing vectors, at least one apical endpoint (Fig. S4C-F)): Cytotoxicity was recorded | statistically significant cytotoxicity (MTS and BCA endpoints) (ZFL cells; BNF, entire concentration range up to 1 µM, non-viral promoter setups (Fig. 1)): no statistically significant cytotoxicity | concentration from which statistically significant cytotoxicity was recorded (MTS) (ZFL cells; BNF, pGL4.37 + pRL-CMV transfected ZFL cells): […] | concentration with statistically significant cytotoxicity (MTS) (ZFL cells; BNF, pGudluc7.5 + pRL-null[zfEF1aPro]): […]
